Patent publication US6417186B1, “Substituted-phenyl ketone derivatives as IP antagonists” (Syntex (U.S.A.) LLC, priority 2000, dated 2002)

| melting point [°C] | SMILES |
| --- | --- |
| 150 to 151.2 | CCOC(=O)N1CCN(c2ccc(C(=O)CCc3ccc(NC4=NCCN4)cc3)cc2)CC1 [Example 5, 3-[4-(4,5-Dihydro-1H-imidazol-2-ylamino)phenyl]-1-[4-(4-ethoxycarbonyl-piperazin-1-yl)phenyl]propan-1-one] |
| 196 to 197.6 | O=C(CCc1ccc(NC2=NCCN2)cc1)c1ccc(N2CCOCC2)cc1 [Example 3, 3-[4-(4,5-Dihydro-1H-imidazol-2-ylamino)phenyl]-1-(4-morpholin-4-ylphenyl)-propan-1-one] |
